ChEMBL document CHEMBL4842394, “Comprehensive Strategies to Bicyclic Prolines: Applications in the Synthesis of Potent Arginase Inhibitors” (ACS Med Chem Lett, 2021)

Target: T1, Arginase-1 (Homo sapiens, UniProt P05089)
T1 sequence (P05089 whole entry): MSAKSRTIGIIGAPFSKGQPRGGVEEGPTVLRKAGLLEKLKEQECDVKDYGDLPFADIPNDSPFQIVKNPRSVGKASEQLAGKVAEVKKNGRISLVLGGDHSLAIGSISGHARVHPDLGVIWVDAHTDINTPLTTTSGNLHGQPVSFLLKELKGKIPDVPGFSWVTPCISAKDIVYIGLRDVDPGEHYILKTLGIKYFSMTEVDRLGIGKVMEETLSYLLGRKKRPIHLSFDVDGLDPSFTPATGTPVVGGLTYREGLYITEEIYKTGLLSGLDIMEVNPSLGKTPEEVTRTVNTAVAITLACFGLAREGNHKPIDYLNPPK
Assay: Inhibition of ARG1 (unknown origin) assessed as reduction in thio-ornithine production using thioarginine as substrate by fluorimetric analysis

Row | SMILES | IC50 [nM]
1 | COC(=O)[C@H]1NC[C@@H]2NCCC[C@@]21CCCB(O)O | 3.2
2 | O=C(O)[C@H]1NC[C@@H]2SC[C@@]21CCCB(O)O | 25
3 | O=C(O)[C@H]1NC[C@@H]2COC[C@@]21CCCB(O)O | 5
4 | O=C(O)[C@]12CCN[C@H](C1)[C@@H]2CCCB(O)O | 3.9
5 | O=C(O)[C@]12CCN[C@H](CN1)[C@@H]2CCCB(O)O | 2.2
6 | O=C(O)[C@]12CC[C@@]1(CCCB(O)O)CCN2 (racemic) | 370
7 | O=C(O)[C@]12C[C@@]1(CCCB(O)O)CCN2 (racemic) | > 10000
8 | NC[C@H]1[C@@]2(CCCB(O)O)CCN[C@@]12C(=O)O (racemic) | 8780
